From paper PMC4426631, “Insect antimicrobial peptides show potentiating functional interactions against Gram-negative bacteria” (Proceedings of the Royal Society B: Biological Sciences, 2015)
Entries after “also recorded” stand apart in the source; their conditions may differ. Ends that are not written are not given here. Peptide text beside a SMILES is read from it. * marks the point of attachment. 5FAM = O=C1OC2(c3ccc(O)cc3Oc3cc(O)ccc32)c2ccc(C(=O)*)cc21; Cf = 5(6)-carboxyfluorescein

Legend:
E. coli DnaK [1] = target: T1, E. coli DnaK (Escherichia coli, UniProt P0A6Y8); assay: FRET quenching peptide–protein interaction assay with DnaK–BHQ10; assay type: binding; conditions: 2 h, n = 3; for DnaK interaction / binding-curve shape, in words / Kd not determinable: pH 7.4; for Kd not determinable: DnaK–BHQ10 quenching, peptide N-terminal carboxyfluorescein, C-terminal amide
T1 sequence (P0A6Y8 whole entry): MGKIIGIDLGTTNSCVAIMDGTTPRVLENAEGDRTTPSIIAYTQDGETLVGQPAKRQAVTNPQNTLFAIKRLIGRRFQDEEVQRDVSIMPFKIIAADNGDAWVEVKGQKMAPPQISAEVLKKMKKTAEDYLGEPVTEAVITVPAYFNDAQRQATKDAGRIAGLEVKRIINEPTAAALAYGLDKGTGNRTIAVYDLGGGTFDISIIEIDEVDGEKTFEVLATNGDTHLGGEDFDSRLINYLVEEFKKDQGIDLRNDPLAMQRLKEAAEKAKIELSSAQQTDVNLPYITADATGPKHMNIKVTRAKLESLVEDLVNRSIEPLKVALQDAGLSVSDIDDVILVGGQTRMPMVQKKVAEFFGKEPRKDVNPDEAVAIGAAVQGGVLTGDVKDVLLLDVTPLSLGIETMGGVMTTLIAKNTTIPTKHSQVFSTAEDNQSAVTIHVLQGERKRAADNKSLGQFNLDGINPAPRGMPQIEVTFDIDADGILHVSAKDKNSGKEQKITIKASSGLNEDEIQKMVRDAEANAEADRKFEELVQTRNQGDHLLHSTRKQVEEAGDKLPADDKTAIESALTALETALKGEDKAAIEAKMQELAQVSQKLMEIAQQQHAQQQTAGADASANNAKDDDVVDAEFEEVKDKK
Method: DnaK, produced by Michael Zahn, was dialysed against modifying buffer (20 mmol l^−1 Na2HPO4, 20 mmol l^−1 KH2PO4, 5 mmol l^−1 MgCl2, 150 mmol l^−1 KCl, pH 7.4) as previously described and 2 mg ml^−1 were labelled with a 10-fold molar excess of BHQ10-NHS-ester, followed by supplementary dialysis to remove excess BHQ10.
As previously described, the fluorescein-modified peptides (50 μl, 1.3 nmol l^−1) and a serial dilution of DnaK–BHQ10 in modification buffer (50 μl, 0.8–13 000 nmol l^−1, 1 : 4 dilution series) were mixed in a black 384-well plate and incubated for 2 h. To calculate the quenching effect, a control was measured in five replicates consisting of 50 μl of peptide solution and 50 μl of modification buffer. The fluorescence intensity was recorded on a Paradigm fluorescence reader using a fluorescence intensity (fluo-rhod) detection cartridge (excitation wavelength = 485 ± 10 nm; emission wavelength = 535 ± 12.5 nm; integration time = 140 ms). The quenching effect was defined as the percentage of the fluorescence intensity of the control quenched after the addition of DnaK–BHQ10. Kd values were determined as described in the electronic supplementary material. […]
i) Peptide synthesis and modification.
The peptide sequences shown in Tabl es S1 an d S4 were selected according to their repo rted […]
(Carmel, USA), respectively. The m ature peptide sequences were based on data from closel y-related species and EST information derived from B. terrestris. Other peptides were s ynthesized b y PANATecs (Tübingen, Germ an y) . All peptides were l yoph ilized for storage, and were resuspended and diluted in double-distilled water, which was used as the zero peptide […]
metchnikowin 1 and 2 (Drosophila melanogaster) peptides were modified by the N -terminal addition of 5(6 )-carbox yfluorescein and C -terminal amidation for the quenching assa y. Bombus pascuorum h ymenoptaecin was modified b y the addition of an N-terminal p yroglutamate. The Black Hole Quencher 10 succinimidyl ester (BHQ10-NHS-ester, >75% purit y) was obtained from BioCat (H eidelber g, German y). […]

E. coli DnaK [2] = target: T1, E. coli DnaK; conditions: ref [51]; cited from earlier work
[3] = tested on: substrate-binding domain of DnaK; conditions: co-crystal structures; ref [58]; cited from earlier work
Text: Normally, the characteristic sequence stretch YL/IPRP is positioned in the DnaK substrate-binding cleft, with a leucine or isoleucine residue occupying the central hydrophobic pocket. Additional hydrophobic binding sites preceding the central pocket are occupied by the conserved tyrosine residue and another, preferentially hydrophobic amino acid residue, defined as posi ...

E. coli = tested on: E. coli; set-up: method as in PMID 6396089; conditions: following treatment with H. cecropia attacin; ref [15]; cited from earlier work
[4] = fluorescein-modified peptide 1.3 nmol l−1, DnaK–BHQ10 0.8–13 000 nmol l−1

In the case of `CC[C@H](C)[C@H](NC(=O)[C@H](CCCCN)NC(=O)[C@@H]1CCCN1C(=O)[C@H](CC(N)=O)NC(=O)[C@H](Cc1ccccc1)NC(=O)[C@@H]1CCCN1C(=O)CNC(=O)[C@H](Cc1c[nH]cn1)NC(=O)CNC(=O)[C@@H]1CCCN1C(=O)[C@H](Cc1ccccc1)NC(=O)[C@H](CO)NC(=O)[C@@H]1CCCN1C(=O)[C@H](Cc1ccccc1)NC(=O)[C@@H]1CCCN1C(=O)[C@H](CCCCN)NC(=O)[C@H](CO)NC(=O)[C@H](CCC(N)=O)NC(=O)CNC(=O)[C@@H]1CCCN1C(=O)[C@H](CCCNC(=N)N)NC(=O)[C@@H]1CCCN1C(=O)[C@@H]1CCCN1C(=O)[C@H](CC(N)=O)NC(=O)[C@H](Cc1ccc(O)cc1)NC(=O)[C@@H]1CCCN1C(=O)[C@@H](NC(=O)[C@H](Cc1ccccc1)NC(=O)c1ccc2c(c1)C(=O)OC21c2ccc(O)cc2Oc2cc(O)ccc21)C(C)C)C(=O)N[C@@H](CCC(N)=O)C(=O)N[C@@H](Cc1c[nH]c2ccccc12)C(=O)N1CCC[C@H]1C(=O)N[C@@H](Cc1ccc(O)cc1)C(=O)N1CCC[C@H]1C(=O)N[C@@H](CC(C)C)C(=O)N1CCC[C@H]1C(=O)N[C@@H](CC(N)=O)C(=O)N1CCC[C@H]1C(=O)NCC(=O)N[C@@H](Cc1c[nH]cn1)C(N)=O` [B. pascuorum abaecin] (5FAM-FVPYNPPRPGQSKPFPSFPGHGPFNPKIQWPYPLPNPGH-NH2), the “maximum quenching effect (binding efficacy)” value (E. coli DnaK [1]; fluorescein-modified peptide 1.3 nmol l−1, DnaK–BHQ10 0.8–13 000 nmol l−1, buffer pH 7.4, fluorescence) is reported as 74%.
For Cf-PQPRPPHPRL-OH [apidaecin 1b (#9–18)], the “DnaK interaction of control peptide, in words” value (E. coli DnaK [2]) is given as “interacts minimally with DnaK” and the “DnaK interaction / binding-curve shape, in words” value (E. coli DnaK [1]; [4]) is given as “small increase in control readouts with increasing probe concentration”.
For “Pyrrhocoricin: proline-rich DnaK-binding AMP (VDKGSYLPRPTPPRPIYNRN; ends and bridges not checked; UniProt P37362 1-20, looked up)”, the DnaK binding orientation [3] is given as “can bind to DnaK in both of the above orientations”.
In the case of “cecropin B: Hyalophora cecropia cecropin B (KWKVFKKIEKMGRNIRNGIVKAGPAIAVLGEAKAL; ends and bridges not checked; UniProt P01508 27-61, looked up)”, the “sensitivity of E. coli towards cecropin B following attacin” value (E. coli) is listed as “enhanced”.
For “drosocin: proline-rich DnaK-binding AMP (GKPRPYSPRPTSHPRPIRV; ends and bridges not checked; UniProt P36193 22-40, looked up)”, the DnaK binding orientation [3] is given as “a proline residue near the C-terminus of drosocin occupies the central pocket”.
For “metalnikowin I: proline-rich AMP from Palomena prasina (Cf-VDKPDYRPRPRPPNM-NH2)”, the Kd not determinable (E. coli DnaK [1]) was “No Kd values could be determined; also recorded: not possible to assign a Kd value” and the “DnaK interaction / binding-curve shape, in words” value (E. coli DnaK [1]; [4]) was “do not interact significantly with bacterial DnaK”.
For “metchnikowin 1: proline-rich AMP from Drosophila melanogaster (Cf-HRHQGPIFDTRPSPFNPNQPRPGPIY-NH2)”, the Kd not determinable (E. coli DnaK [1]) was “No Kd values could be determined; also recorded: not possible to assign a Kd value” and the “DnaK interaction / binding-curve shape, in words” value (E. coli DnaK [1]; [4]) was “do not interact significantly with bacterial DnaK”.
For “metchnikowin 2: proline-rich AMP from Drosophila melanogaster (Cf-HRRQGPIFDTRPSPFNPNQPRPGPIY-NH2)”, the Kd not determinable (E. coli DnaK [1]) was “No Kd values could be determined; also recorded: not possible to assign a Kd value” and the “DnaK interaction / binding-curve shape, in words” value (E. coli DnaK [1]; [4]) was “do not interact significantly with bacterial DnaK”.
